Measurements taken from patent US11566007B2, “Ras inhibitors” (Revolution Medicines, Inc., priority 2019, dated 2023).
Where two headings read alike, the source gives them in different places.

What was measured:
[1] = ester bond, 18-membered ring, DCM
SW1573 = settings: Canon et al. 2019; cited from earlier work
[2] = test system: NCI-H358 KRASG12C xenograft; experiment: In vivo NSCLC K-Ras G12C xenograft model; parameters: species or system BALB/c nude mice
Experimental: Cobimetinib was administered by daily oral gavage at 2.5 mg/kg. The combination of Compound B and cobimetinib at their respective single-agent dose and regimen was also tested.

NCI-H358 cells [3] = experiment: Long-term cell proliferation assay (Incucyte confluence); format: cell-based, human; settings: trametinib 10 nM
Experimental: The plate was placed in the Incucyte S3 live cell analysis system (37° C., 5% CO2) and confluence was measured by recording images at 6-hour intervals for a maximum of 40 days, or until wells reached maximal confluence. Media and drug were replaced at 3-4 day intervals. Data are plotted as % confluence over the time course of the experiment for each single agent and respective combination (FIG. 5).

NCI-H358 cells [4] = experiment: 72-hour proliferation assay using CellTiter-Glo reagent; format: cell-based, human; settings: read-out: EC50 from a 72-hour proliferation assay
[5] = single agent: Compound B 50 mg/kg twice weekly intravenous, cobimetinib […] daily oral

Molecule `CC1(C)COC(=O)[C@@H]2CCCN(N2)C(=O)[C@@H](NC(=O)OC(C)(C)C)Cc2cccc(c2)-c2ccc3[nH]c(I)c(c3c2)C1` has a ring closure, isolated yield ([1]; from CC(C)(CO)Cc1c(I)[nH]c2ccc(-c3cccc(C[C@H](NC(=O)OC(C)(C)C)C(=O)N4CCC[C@@H](C(=O)O)N4)c3)cc12, EDCI/HOBt/DIPEA, 12.8 mM, 0.0 °C) of 79.8% and a ring closure, yield of all isomers (from CC(C)(CO)Cc1c(I)[nH]c2ccc(-c3cccc(C[C@H](NC(=O)OC(C)(C)C)C(=O)N4CCC[C@@H](C(=O)O)N4)c3)cc12, ester bond, EDCI/HOBt/DIPEA, DCM, 12.77 mM, 0.0 °C, 16.0 h) of 79.8%.

Molecule `CCn1c(-c2cccnc2[C@H](C)OC)c2c3cc(ccc31)-c1nc(co1)C[C@H](NC(=O)OC(C)(C)C)C(=O)N1CCC[C@H](N1)C(=O)OCC(C)(C)C2` has a ring closure, yield of all isomers (from CCn1c(-c2cccnc2[C@H](C)OC)c(CC(C)(C)COC(=O)[C@@H]2CCCN(C(=O)[C@H](Cc3coc(Br)n3)NC(=O)OC(C)(C)C)N2)c2cc(B3OC(C)(C)C(C)(C)O3)ccc21, cc_pd bond, XPhos Pd G3/XPhos/K3PO4, dioxane, […], 70.0 °C, 4.0 h) of 56%.

In the case of `CCn1c(-c2cccnc2[C@H](C)OC)c2c3cc(ccc31)-c1nc(nn1C)C[C@H](NC(=O)OC(C)(C)C)C(=O)N1CCC[C@H](N1)C(=O)OCC(C)(C)C2`, the ring closure, yield of all isomers (from CCn1c(-c2cccnc2[C@H](C)OC)c(CC(C)(C)COC(=O)[C@@H]2CCCN(C(=O)[C@H](Cc3nc(Br)n(C)n3)NC(=O)OC(C)(C)C)N2)c2cc(B3OC(C)(C)C(C)(C)O3)ccc21, cc_pd bond, XPhos Pd G3/XPhos/K3PO4, 1,4-dioxane, 71.7 mM, 75.0 °C, 3.0 h) is reported as 56.8%.

`CCn1c(-c2cccnc2[C@H](C)OC)c2c3nc(ccc31)-c1csc(n1)C[C@H](NC(=O)OC(C)(C)C)C(=O)N1CCC[C@H](N1)C(=O)OCC(C)(C)C2` showed a ring closure, isolated yield ([1]; from CCn1c(-c2cccnc2[C@H](C)OC)c(CC(C)(C)CO)c2nc(-c3csc(C[C@H](NC(=O)OC(C)(C)C)C(=O)N4CCC[C@@H](C(=O)O)N4)n3)ccc21, EDCI.HCl/HOBt/DIPEA, 6.4 mM) of 43% and a ring closure, yield of all isomers (from CCn1c(-c2cccnc2[C@H](C)OC)c(CC(C)(C)CO)c2nc(-c3csc(C[C@H](NC(=O)OC(C)(C)C)C(=O)N4CCC[C@@H](C(=O)O)N4)n3)ccc21, ester bond, EDCI/HOBt/DIPEA, DCM, 6.4 mM, 25.0 °C, 16.0 h) of 43%.

`CO[C@@H](C)c1ncccc1-c1c2c3cc(ccc3n1CC(F)(F)F)-c1cccc(n1)C[C@H](NC(=O)OC(C)(C)C)C(=O)N1CCCC(N1)C(=O)OCC(C)(C)C2` (some centres unmarked) gave a ring closure, isolated yield ([1]; from CO[C@@H](C)c1ncccc1-c1c(CC(C)(C)CO)c2cc(-c3cccc(C[C@H](NC(=O)OC(C)(C)C)C(=O)N4CCCC(C(=O)O)N4)n3)ccc2n1CC(F)(F)F, EDCI/HOBt/DIPEA, 6.27 mM) of 89% and a ring closure, yield of all isomers (from CO[C@@H](C)c1ncccc1-c1c(CC(C)(C)CO)c2cc(-c3cccc(C[C@H](NC(=O)OC(C)(C)C)C(=O)N4CCCC(C(=O)O)N4)n3)ccc2n1CC(F)(F)F, ester bond, EDCI/HOBt/DIPEA, DCM, 6.27 mM, 25.0 °C, 3.0 h) of 89%.

In the case of `CO[C@@H](C)c1ncccc1-c1c2c3cc(ccc3n1CC(F)(F)F)-c1nc(ns1)C[C@H](NC(=O)OC(C)(C)C)C(=O)N1CCC[C@H](N1)C(=O)OCC(C)(C)C2`, the ring closure, isolated yield ([1]; from CO[C@@H](C)c1ncccc1-c1c(CC(C)(C)CO)c2cc(-c3nc(C[C@H](NC(=O)OC(C)(C)C)C(=O)N4CCC[C@@H](C(=O)O)N4)ns3)ccc2n1CC(F)(F)F, EDCI/HOBt/DIPEA, 11.1 mM) is reported as 43.5% and the ring closure, yield of all isomers (from CO[C@@H](C)c1ncccc1-c1c(CC(C)(C)CO)c2cc(-c3nc(C[C@H](NC(=O)OC(C)(C)C)C(=O)N4CCC[C@@H](C(=O)O)N4)ns3)ccc2n1CC(F)(F)F, ester bond, EDCI/HOBt/DIPEA, DCM, 11.1 mM, 25.0 °C, 16.0 h) is reported as 43.5%.

In the case of `C=CC(=O)N1CCN(c2nc(=O)n(-c3c(C)ccnc3C(C)C)c3nc(-c4c(O)cccc4F)c(F)cc23)[C@@H](C)C1` [AMG510], the “sensitivity of cell line” value (SW1573) is given as “insensitive”.

With `Cc1nc(N2CCC3(CC2)CO[C@@H](C)[C@H]3N)c(CO)nc1-c1cccc(Cl)c1Cl` [RMC-4550] the “mice with tumor regression at end of study (out of 10), single agent” value ([2]; single agent: Compound C 60 mg/kg once weekly intravenous, SHP2 inhibitor (RMC-4550) 30 mg/kg daily oral) was 5.

With `O=C(c1ccc(F)c(F)c1Nc1ccc(I)cc1F)N1CC(O)([C@@H]2CCCCN2)C1` [cobimetinib] the “effect on tumor growth, single agent” value [2, 5] was “tumor growth inhibition” and the “tumor regressions recorded, single agent group” value [2, 5] was “no tumor regressions”.

For `CC(=O)Nc1cccc(-n2c(=O)n(C3CC3)c(=O)c3c(Nc4ccc(I)cc4F)n(C)c(=O)c(C)c32)c1` [trametinib], the “time to maximal confluence after the addition of drug” value (NCI-H358 cells [3]; single agent at EC50 concentration: Compound D 17 nM) was about 10 days, the “cell growth (% confluence) over time, single agent” value (NCI-H358 cells [3]; submaximal (EC50) concentration: Compound D 17 nM) was “a short period of growth inhibition, followed by proliferation” and the EC50 (NCI-H358 cells [4]) was 10 nM.
